Key:
CD46 expression [1] = assay: CD46 expression by RNA-sequencing in paired tumor biopsies before and after therapy; conditions: paired biopsies;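 also: FFPE human tumor biopsies, exome-capture RNA-seq, reads aligned to GRCh37, counts normalized for GC content, length and depth, summed per gene, log2-transformed, samples paired before versus after therapy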
CD46 expression [2] = assay: CD46 expression by RNA-sequencing in unpaired pre-treatment and post-treatment tumor biopsies; format: in vivo, human; conditions: for CD46 expression Post: post-treatment biopsies
[3] = Breast Cancer, RNA-seq log2-transformed counts
[4] = Ovarian Cancer, RNA-seq log2-transformed counts
[5] = Pancreatic Cancer, RNA-seq log2-transformed counts
[6] = Sarcoma, RNA-seq log2-transformed counts
[7] = Biliary Cancer, Post minus Pre, unpaired biopsies, log2-transformed counts
[8] = Biliary Cancer, post- vs pre-treatment unpaired biopsies
[9] = Biliary Cancer, unpaired, RNA-seq log2-transformed normalized counts
[10] = Breast Cancer, Post minus Pre, unpaired biopsies, log2-transformed counts
[11] = Breast Cancer, post- vs pre-treatment unpaired biopsies
[12] = Breast Cancer, unpaired, RNA-seq log2-transformed normalized counts
[13] = Ovarian Cancer, Post minus Pre, unpaired biopsies, log2-transformed counts
[14] = Ovarian Cancer, post- vs pre-treatment unpaired biopsies
[15] = Ovarian Cancer, unpaired, RNA-seq log2-transformed normalized counts
[16] = Sarcoma, Post minus Pre, unpaired biopsies, log2-transformed counts
[17] = Sarcoma, post- vs pre-treatment unpaired biopsies
[18] = Sarcoma, unpaired, RNA-seq log2-transformed normalized counts
[19] = Colorectal Cancer, RNA-seq log2-transformed counts
[20] = Colorectal Cancer, Post minus Pre, unpaired biopsies, log2-transformed counts
[21] = Colorectal Cancer, post- vs pre-treatment unpaired biopsies
[22] = Colorectal Cancer, unpaired, RNA-seq log2-transformed normalized counts
[23] = Pancreatic Cancer, post minus pre, unpaired biopsies
[24] = Pancreatic Cancer, post vs pre, unpaired biopsies
[25] = Pancreatic Cancer, log2-transformed RNA-seq counts
[26] = Prostate Cancer, RNA-seq log2-transformed counts

Nc1ccn([C@@H]2O[C@H](CO)[C@@H](O)C2(F)F)c(=O)n1 [gemcitabine]
CD46 expression diff (post minus pre) (CD46 expression [1]; Biliary Cancer): 0.05 | Percent Change in CD46 expression (CD46 expression [1]; Biliary Cancer): 0.9% | CD46 expression, Post-Treatment Biopsy (CD46 expression [1]; Biliary Cancer, RNA-seq log2-transformed counts): 5.86 | CD46 expression diff (post minus pre) (CD46 expression [1]; Bladder Cancer): −0.05 | Percent Change in CD46 expression (CD46 expression [1]; Bladder Cancer): −0.8% | CD46 expression, Post-Treatment Biopsy (CD46 expression [1]; Bladder Cancer, RNA-seq log2-transformed counts): 6.24 | CD46 expression diff (post minus pre) (CD46 expression [1]; Breast Cancer): 0.09 | Percent Change in CD46 expression (CD46 expression [1]; Breast Cancer): 1.4% | CD46 expression, Post-Treatment Biopsy (CD46 expression [1]; [3]): 6.22 | CD46 expression diff (post minus pre) (CD46 expression [1]; Ovarian Cancer): 0.30 | Percent Change in CD46 expression (CD46 expression [1]; Ovarian Cancer): 5.3% | CD46 expression, Post-Treatment Biopsy (CD46 expression [1]; [4]): 5.95 | CD46 expression diff (post minus pre) (CD46 expression [1]; Pancreatic Cancer): 0.09 | Percent Change in CD46 expression (CD46 expression [1]; Pancreatic Cancer): 1.5% | CD46 expression, Post-Treatment Biopsy (CD46 expression [1]; [5]): 5.93 | CD46 expression diff (post minus pre) (CD46 expression [1]; Sarcoma): 0.02 | Percent Change in CD46 expression (CD46 expression [1]; Sarcoma): 0.4% | CD46 expression, Post-Treatment Biopsy (CD46 expression [1]; [6]): 5.13 | CD46 expression diff (CD46 expression [2]; [7]): −0.03 | CD46 expression Percentage change (CD46 expression [2]; [8]): −0.5% | CD46 expression Post (CD46 expression [2]; [9]): 5.80 | CD46 expression diff (CD46 expression [2]; Bladder Cancer, Post minus Pre, unpaired biopsies, log2-transformed counts): −0.03 | CD46 expression Percentage change (CD46 expression [2]; Bladder Cancer, post- vs pre-treatment unpaired biopsies): −0.5% | CD46 expression Post (CD46 expression [2]; Bladder Cancer, unpaired, RNA-seq log2-transformed normalized counts): 6.12 | CD46 expression diff (CD46 expression [2]; [10]): 0.02 | CD46 expression Percentage change (CD46 expression [2]; [11]): 0.3% | CD46 expression Post (CD46 expression [2]; [12]): 6.09 | CD46 expression diff (CD46 expression [2]; Non-Small Cell Lung Cancer, Post minus Pre, unpaired biopsies, log2-transformed counts): 0.10 | CD46 expression Percentage change (CD46 expression [2]; Non-Small Cell Lung Cancer, post- vs pre-treatment unpaired biopsies): 1.7% | CD46 expression Post (CD46 expression [2]; Non-Small Cell Lung Cancer, unpaired, RNA-seq log2-transformed normalized counts): 5.98 | CD46 expression diff (CD46 expression [2]; [13]): −0.05 | CD46 expression Percentage change (CD46 expression [2]; [14]): −0.9% | CD46 expression Post (CD46 expression [2]; [15]): 5.72 | CD46 expression diff (CD46 expression [2]; Pancreatic Cancer, Post minus Pre, unpaired biopsies, log2-transformed counts): 0.00 | CD46 expression Percentage change (CD46 expression [2]; Pancreatic Cancer, post- vs pre-treatment unpaired biopsies): 0.1% | CD46 expression Post (CD46 expression [2]; Pancreatic Cancer, unpaired, RNA-seq log2-transformed normalized counts): 5.87 | CD46 expression diff (CD46 expression [2]; [16]): −0.10 | CD46 expression Percentage change (CD46 expression [2]; [17]): −2.0% | CD46 expression Post (CD46 expression [2]; [18]): 5.02

O=P1(NCCCl)OCCCN1CCCl (centres unmarked) [ifosfamide]
CD46 expression diff (post minus pre) (CD46 expression [1]; Sarcoma): 0.32 | Percent Change in CD46 expression (CD46 expression [1]; Sarcoma): 6.7% | CD46 expression, Post-Treatment Biopsy (CD46 expression [1]; [6]): 5.08 | CD46 expression diff (CD46 expression [2]; [16]): 0.17 | CD46 expression Percentage change (CD46 expression [2]; [17]): 3.4% | CD46 expression Post (CD46 expression [2]; [18]): 5.07

CCc1c2c(nc3ccc(OC(=O)N4CCC(N5CCCCC5)CC4)cc13)-c1cc3c(c(=O)n1C2)COC(=O)[C@]3(O)CC [irinotecan]
CD46 expression diff (post minus pre) (CD46 expression [1]; Colorectal Cancer): 0.16 | Percent Change in CD46 expression (CD46 expression [1]; Colorectal Cancer): 2.5% | CD46 expression, Post-Treatment Biopsy (CD46 expression [1]; [19]): 6.48 | CD46 expression diff (post minus pre) (CD46 expression [1]; Pancreatic Cancer): −0.01 | Percent Change in CD46 expression (CD46 expression [1]; Pancreatic Cancer): −0.1% | CD46 expression, Post-Treatment Biopsy (CD46 expression [1]; [5]): 5.93 | CD46 expression diff (CD46 expression [2]; Biliary Cancer, post minus pre, unpaired biopsies): −0.14 | CD46 expression Percentage change (CD46 expression [2]; Biliary Cancer, post vs pre, unpaired biopsies): −2.3% | CD46 expression Post (CD46 expression [2]; Biliary Cancer, log2-transformed RNA-seq counts): 5.88 | CD46 expression diff (CD46 expression [2]; [20]): 0.16 | CD46 expression Percentage change (CD46 expression [2]; [21]): 2.5% | CD46 expression Post (CD46 expression [2]; [22]): 6.54 | CD46 expression diff (CD46 expression [2]; [23]): −0.14 | CD46 expression Percentage change (CD46 expression [2]; [24]): −2.5% | CD46 expression Post (CD46 expression [2]; [25]): 5.76 | CD46 expression after treatment vs pre-treatment (CD46 expression [2]; colorectal cancer, unpaired biopsies, FIG. 5): significantly higher

N#Cc1ccc(C(c2ccc(C#N)cc2)n2cncn2)cc1 [letrozole]
CD46 expression diff (post minus pre) (CD46 expression [1]; Breast Cancer): −0.04 | Percent Change in CD46 expression (CD46 expression [1]; Breast Cancer): −0.6% | CD46 expression, Post-Treatment Biopsy (CD46 expression [1]; [3]): 6.41 | CD46 expression diff (CD46 expression [2]; [10]): −0.04 | CD46 expression Percentage change (CD46 expression [2]; [11]): −0.6% | CD46 expression Post (CD46 expression [2]; [12]): 6.39 | CD46 expression diff (CD46 expression [2]; Ovarian Cancer, post minus pre, unpaired biopsies): −0.17 | CD46 expression Percentage change (CD46 expression [2]; Ovarian Cancer, post vs pre, unpaired biopsies): −2.8% | CD46 expression Post (CD46 expression [2]; Ovarian Cancer, log2-transformed RNA-seq counts): 5.74

Nc1nc2c(c(=O)[nH]1)N(C=O)C(CNc1ccc(C(=O)N[C@@H](CCC(=O)O)C(=O)O)cc1)CN2 (some centres unmarked) [leucovorin]
CD46 expression diff (post minus pre) (CD46 expression [1]; Colorectal Cancer): −0.07 | Percent Change in CD46 expression (CD46 expression [1]; Colorectal Cancer): −1.0% | CD46 expression, Post-Treatment Biopsy (CD46 expression [1]; [19]): 6.30 | CD46 expression diff (post minus pre) (CD46 expression [1]; Esophageal Cancer): −0.14 | Percent Change in CD46 expression (CD46 expression [1]; Esophageal Cancer): −2.3% | CD46 expression, Post-Treatment Biopsy (CD46 expression [1]; Esophageal Cancer, RNA-seq log2-transformed counts): 5.74 | CD46 expression diff (post minus pre) (CD46 expression [1]; Pancreatic Cancer): 0.09 | Percent Change in CD46 expression (CD46 expression [1]; Pancreatic Cancer): 1.5% | CD46 expression, Post-Treatment Biopsy (CD46 expression [1]; [5]): 5.92 | CD46 expression diff (CD46 expression [2]; [7]): 0.00 | CD46 expression Percentage change (CD46 expression [2]; [8]): 0.1% | CD46 expression Post (CD46 expression [2]; [9]): 5.92 | CD46 expression diff (CD46 expression [2]; [20]): 0.08 | CD46 expression Percentage change (CD46 expression [2]; [21]): 1.2% | CD46 expression Post (CD46 expression [2]; [22]): 6.46 | CD46 expression diff (CD46 expression [2]; Esophageal Cancer, Post minus Pre, unpaired biopsies, log2-transformed counts): −0.05 | CD46 expression Percentage change (CD46 expression [2]; Esophageal Cancer, post- vs pre-treatment unpaired biopsies): −0.9% | CD46 expression Post (CD46 expression [2]; Esophageal Cancer, unpaired, RNA-seq log2-transformed normalized counts): 5.84 | CD46 expression diff (CD46 expression [2]; Gastric Cancer, Post minus Pre, unpaired biopsies, log2-transformed counts): −0.11 | CD46 expression Percentage change (CD46 expression [2]; Gastric Cancer, post- vs pre-treatment unpaired biopsies): −1.8% | CD46 expression Post (CD46 expression [2]; Gastric Cancer, unpaired, RNA-seq log2-transformed normalized counts): 5.68 | CD46 expression diff (CD46 expression [2]; [23]): −0.15 | CD46 expression Percentage change (CD46 expression [2]; [24]): −2.5% | CD46 expression Post (CD46 expression [2]; [25]): 5.76

CCNC(=O)[C@@H]1CCCN1C(=O)[C@H](CCCNC(=N)N)NC(=O)[C@H](CC(C)C)NC(=O)[C@@H](CC(C)C)NC(=O)[C@H](Cc1ccc(O)cc1)NC(=O)[C@H](CO)NC(=O)[C@H](Cc1c[nH]c2ccccc12)NC(=O)[C@H](Cc1c[nH]cn1)NC(=O)[C@@H]1CCC(=O)N1 [leuprolide]
CD46 expression diff (post minus pre) (CD46 expression [1]; Prostate Cancer): −0.19 | Percent Change in CD46 expression (CD46 expression [1]; Prostate Cancer): −3.1% | CD46 expression, Post-Treatment Biopsy (CD46 expression [1]; [26]): 5.92 | CD46 expression, Pre-Treatment Biopsy (CD46 expression [1]; [26]): 6.11 | CD46 expression diff (CD46 expression [2]; Breast Cancer, post minus pre, unpaired biopsies): −0.15 | CD46 expression Percentage change (CD46 expression [2]; Breast Cancer, post vs pre, unpaired biopsies): −2.3% | CD46 expression Post (CD46 expression [2]; Breast Cancer, log2-transformed RNA-seq counts): 6.18 | CD46 expression Pre (CD46 expression [2]; Breast Cancer, pre-treatment biopsies, log2-transformed RNA-seq counts): 6.33 | CD46 expression diff (CD46 expression [2]; Prostate Cancer, Post minus Pre, unpaired biopsies, log2-transformed counts): −0.10 | CD46 expression Percentage change (CD46 expression [2]; Prostate Cancer, post- vs pre-treatment unpaired biopsies): −1.6% | CD46 expression Post (CD46 expression [2]; Prostate Cancer, unpaired, RNA-seq log2-transformed normalized counts): 6.08

O=C(c1cc(Cc2n[nH]c(=O)c3ccccc23)ccc1F)N1CCN(C(=O)C2CC2)CC1 [olaparib]
CD46 expression diff (post minus pre) (CD46 expression [1]; Ovarian Cancer): −0.14 | Percent Change in CD46 expression (CD46 expression [1]; Ovarian Cancer): −2.5% | CD46 expression, Post-Treatment Biopsy (CD46 expression [1]; [4]): 5.51 | CD46 expression diff (CD46 expression [2]; [10]): 0.04 | CD46 expression Percentage change (CD46 expression [2]; [11]): 0.6% | CD46 expression Post (CD46 expression [2]; [12]): 6.15 | CD46 expression diff (CD46 expression [2]; [13]): −0.02 | CD46 expression Percentage change (CD46 expression [2]; [14]): −0.3% | CD46 expression Post (CD46 expression [2]; [15]): 5.70

C=CC(=O)Nc1cc(Nc2nccc(-c3cn(C)c4ccccc34)n2)c(OC)cc1N(C)CCN(C)C [osimertinib]
CD46 expression diff (post minus pre) (CD46 expression [1]; Non-Small Cell Lung Cancer): −0.26 | Percent Change in CD46 expression (CD46 expression [1]; Non-Small Cell Lung Cancer): −4.0% | CD46 expression diff (CD46 expression [2]; Non-Small Cell Lung Cancer, post minus pre, unpaired biopsies): −0.29 | CD46 expression Percentage change (CD46 expression [2]; Non-Small Cell Lung Cancer, post vs pre, unpaired biopsies): −4.4% | CD46 expression Post (CD46 expression [2]; Non-Small Cell Lung Cancer, log2-transformed RNA-seq counts): 6.23

From US20240058464A1 (Fortis Therapeutics, Inc., priority 2021, published 2024)
